Measurements as given in PubChem BioAssay AID248 (DTP/NCI, 2004).
Inconclusive results and toxic doses are left out.

Test system: L1210 leukemia ip in BDF1 mice, survival T/C
Assay: NCI In Vivo Anticancer Drug Screen. Data for tumor model L1210 Leukemia (intraperitoneal) in B6D2F1 (BDF1) mice
Conditions: endpoint: mean survival time, higher = longer survival
How it was run: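 Mice bearing the transplanted tumor received compound or vehicle. Survival of the treated group was divided by that of the vehicle-treated control group to give the ratio.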

[1] = dose: 100.0 mg/kg/injection, schedule: Q01DX009 (ip), vehicle: saline with Tween-80
[2] = dose: 200.0 mg/kg/injection, schedule: Q01DX009 (ip), vehicle: saline with Tween-80
[3] = dose: 400.0 mg/kg/injection, schedule: Q01DX009 (ip), vehicle: saline with Tween-80

CCCCc1ccc(NC(=O)N(CCCl)N=O)cc1
T/C (dose: 6.0 mg/kg/injection, schedule: Q01DX009 (ip), vehicle: carboxymethylcellulose (CMC)): 156 % of control | T/C (dose: 33.0 mg/kg/injection, schedule: Q01DX009 (ip), vehicle: carboxymethylcellulose (CMC)): 175 % of control | T/C (dose: 37.5 mg/kg/injection, schedule: Q01DX001 (ip), vehicle: carboxymethylcellulose (CMC)): 163 % of control | T/C (dose: 50.0 mg/kg/injection, schedule: Q01DX009 (ip), vehicle: carboxymethylcellulose (CMC)): 180 % of control | T/C (dose: 75.0 mg/kg/injection, schedule: Q01DX001 (ip), vehicle: carboxymethylcellulose (CMC)): 194 % of control | T/C (dose: 75.0 mg/kg/injection, schedule: Q01DX009 (ip), vehicle: carboxymethylcellulose (CMC)): 106 % of control | T/C (dose: 75.0 mg/kg/injection, schedule: Q04DX003 (ip), vehicle: saline with Tween-80): 120 % of control | T/C (dose: 112.5 mg/kg/injection, schedule: Q01DX009 (ip), vehicle: carboxymethylcellulose (CMC)): 87 % of control | T/C (dose: 150.0 mg/kg/injection, schedule: Q01DX001 (ip), vehicle: carboxymethylcellulose (CMC)): 260 % of control

O=C1OC2CCCCC1CC2 (centres undefined)
T/C (dose: 100.0 mg/kg/injection, schedule: Q01DX001 (ip), vehicle: saline): 108 % of control | T/C (dose: 200.0 mg/kg/injection, schedule: Q01DX001 (ip), vehicle: saline): 110 % of control | T/C (dose: 400.0 mg/kg/injection, schedule: Q01DX001 (ip), vehicle: saline): 87 % of control

CCOCc1c(COc2ccc(Br)cc2)n(CC)c2ccccc12
T/C [1]: 93 % of control | T/C [2]: 90 % of control | T/C [3]: 90 % of control

CNS(=O)(=O)c1ccc(N)cc1
T/C (dose: 100.0 mg/kg/injection, schedule: Q01DX001 (ip), vehicle: other): 107 % of control | T/C [1]: 102 % of control | T/C (dose: 100.0 mg/kg/injection, schedule: Q04DX003 (ip), vehicle: other): 97 % of control | T/C (dose: 200.0 mg/kg/injection, schedule: Q01DX001 (ip), vehicle: other): 104 % of control | T/C [2]: 110 % of control | T/C (dose: 200.0 mg/kg/injection, schedule: Q04DX003 (ip), vehicle: other): 106 % of control | T/C (dose: 400.0 mg/kg/injection, schedule: Q01DX001 (ip), vehicle: other): 100 % of control | T/C [3]: 98 % of control | T/C (dose: 400.0 mg/kg/injection, schedule: Q04DX003 (ip), vehicle: other): 108 % of control

CCOC(=O)/C=C/c1ccco1
T/C (dose: 50.0 mg/kg/injection, schedule: Q01DX009 (ip), vehicle: saline with Tween-80): 93 % of control | T/C [1]: 96 % of control | T/C (dose: 100.0 mg/kg/injection, schedule: Q04DX003 (ip), vehicle: saline with Tween-80): 103 % of control | T/C [2]: 93 % of control | T/C (dose: 200.0 mg/kg/injection, schedule: Q04DX003 (ip), vehicle: saline with Tween-80): 95 % of control

Cc1ccc(Cl)c(NC(=O)c2ccc(C(=O)Nc3cc(C)ccc3Cl)cc2)c1
T/C (dose: 100.0 mg/kg/injection, schedule: Q01DX009 (ip), vehicle: Klucel (hydroxypropylcellulose) (HPC)): 87 % of control | T/C (dose: 200.0 mg/kg/injection, schedule: Q01DX009 (ip), vehicle: Klucel (hydroxypropylcellulose) (HPC)): 88 % of control | T/C (dose: 400.0 mg/kg/injection, schedule: Q01DX009 (ip), vehicle: Klucel (hydroxypropylcellulose) (HPC)): 91 % of control

CC(C)OC(=S)SCC(=O)c1ccc([N+](=O)[O-])cc1
T/C (dose: 100.0 mg/kg/injection, schedule: Q04DX002 (ip), vehicle: Klucel (hydroxypropylcellulose) (HPC)): 112 % of control | T/C (dose: 200.0 mg/kg/injection, schedule: Q04DX002 (ip), vehicle: Klucel (hydroxypropylcellulose) (HPC)): 102 % of control | T/C (dose: 400.0 mg/kg/injection, schedule: Q04DX002 (ip), vehicle: Klucel (hydroxypropylcellulose) (HPC)): 105 % of control

N#CC1=C(C#N)C(=O)C(Cl)=C(Cl)C1=O
T/C (dose: 6.25 mg/kg/injection, schedule: Q01DX009 (ip), vehicle: saline): 98 % of control | T/C (dose: 12.5 mg/kg/injection, schedule: Q01DX009 (ip), vehicle: saline): 102 % of control | T/C (dose: 12.5 mg/kg/injection, schedule: Q04DX003 (ip), vehicle: saline sonified): 104 % of control | T/C (dose: 25.0 mg/kg/injection, schedule: Q04DX003 (ip), vehicle: saline sonified): 93 % of control
